Data as given in patent US8299236B2, “Compositions and methods for enhancing delivery of nucleic acids into cells and for modifying expression of target genes in cells” (Marina Biotech, Inc., priority 2004, dated 2012).

Legend:
mouse tail fibroblasts = assay: siRNA uptake with siRNA/peptide complexes in murine primary fibroblasts; assay type: cell-based; settings: Table 6
Protocol: Approximately 10,000 9 L/lacZ cells were plated per well in flat-bottom 96-well plates so that they would be ˜50% confluent the next day at the time of transfection. FAM-labeled siRNA and peptides were diluted in Opti-MEM® media (Invitrogen) at 2-fold the final concentration. Equal volumes of siRNA and peptide were mixed and allowed to complex 5-10 minutes at room temperature and then 50 μL added to cells, previously washed with PBS. Cells were transfected for 3 hours at 37° C., 5% CO2. Cells were washed with PBS, treated with trypsin and then analyzed by flow cytometry. siRNA uptake was measured by intensity of FAM fluorescence and cellular viability assessed by addition of propidium iodide.
The materials and methods used for these experiments are generally the same as described above, except that for the murine experiments 9 L/LacZ cells were replaced with mouse tail fibroblasts.
The uptake measurements were performed using mouse tail fibroblast cells.

9 L/LacZ cells = assay: Screening of siRNA/peptide complexes for FAM-siRNA uptake (flow cytometry, propidium iodide); assay type: cell-based; settings: Table 6
cells = assay: Uptake of peptide-siRNA conjugate versus complex (Cy5 fluorescence, flow cytometry); assay type: cell-based; settings: FIGS. 1 and 2
Protocol: Cells were plated the day before in 24-well plates so that they were ˜50-80% confluent at time of transfection. For complexes, siRNA and peptide were diluted in Opti-MEM® media (Invitrogen), then mixed and allowed to complex 5-10 minutes before adding to cells washed with PBS. Final concentration of siRNA was 500 nM at each peptide concentration (2-50 μM). The conjugate, also diluted in Opti-MEM® media, was added to cells at final concentrations ranging from 62.5 nM to 500 nM. At 500 nM concentration, we also combined with 20% FBS just before adding to washed cells. Cells were transfected for 3 hours at 37° C., 5% CO2. Cells were washed with PBS, treated with trypsin and then analyzed by flow cytometry. siRNA uptake was measured by intensity of Cy5 fluorescence and cellular viability assessed by addition of propidium iodide.

hTNF-α = assay: Plasma hTNF-α ELISA in human TNF-α expressing mice; assay type: in vivo, mouse; settings: i.v., average of the mice
Excerpt: During the injection periods, plasma samples were collected for ELISA testing (R&D Systems, Cat#SSTA00C), and paw scores were taken twice a week as an accepted index of RA disease progression and therapeutic efficacy.

[1] = test system: transgenic mouse models of rheumatoid arthritis (RA) constitutively expressing human TNF-α; assay: Transgenic mouse models of rheumatoid arthritis constitutively expressing human TNF-α; assay type: in vivo; settings: twice weekly beginning at age 6 weeks; stabilization beginning at age 7 weeks
Protocol: One exemplary candidate siRNA/delivery peptide formulation was evaluated in two transgenic mouse models of rheumatoid arthritis (RA) constitutively expressing human TNF-α.

Row | Substance | Percent Uptake, Primary MTF Cells (mouse tail fibroblasts) [%] | Percent Uptake, LacZ Cells (9 L/LacZ cells) [%] | also measured
1 | H-RGSRRAVTRAQRRDGRRRRRSRRESYSVYVYRVLRQ-NH2 [PN404] | 50 |  | 
2 | AAVALLPAVLLALLAPRKKRRQRRRPPQC [PN27] | 61 | 86 | 
3 | H-AAVALLPAVLLALLAPSGASGLDKRDYV-NH2 [PN29] |  | 87 | 
4 | conjugate: TAT-HA peptide (SEQ ID NO: 35) covalently conjugated to the siRNA sense strand (SEQ ID NO: 34) (chain 1 gcaagcugacccugaaguucau; chain 2 RRRQRRKRGGDIMGEWGNEIFGAIAGFLG; peptide-siRNA conjugate) |  |  | siRNA uptake and mean fluorescence, conjugate compared to complexing peptide and RNA (cells): higher uptake and greater mean fluorescence uptake
5 | H-RRRQRRKRGGDIMGEWGNEIFGAIAGFLG-NH2 [PN250] | 86 | 99 | 
6 | Ramicade: the RA drug Ramicade (5 mg/kg); TNF-α neutralizing agent infliximab |  |  | hTNF-α ELISA (plasma) (hTNF-α; age 7 weeks): 102.24 pg/mL; hTNF-α ELISA (plasma) (hTNF-α; age 8 weeks): 39.27 pg/mL; hTNF-α ELISA (plasma) (hTNF-α; age 9 weeks): 25.80 pg/mL; RA score (paw and joint inflammation) [1]: RA score stabilization
7 | NH2-RKKRRQRRRPPQCAAVALLPAVLLALLAP-amide (H-RKKRRQRRRPPQCAAVALLPAVLLALLAP-NH2) [PN28] | 81 | 79 | 
8 | Ac-KETWWETWWTEWSQPKKKRKV-NH2 [PN182] |  | 85 | 
9 | H-GALFLGFLGAAGSTMGAWSQPKSKRKVC-NH2 [PN453] | 79 |  | 
10 | NH2-LLETLLKPFQCRICMRNFSTRQARRNHRRRHRR-amide (H-LLETLLKPFQCRICMRNFSTRQARRNHRRRHRR-NH2; cysteine pairing not given here) [PN202] |  | 71 | 
